Converted amounts (≈) assume the structure as drawn. Blank lines part the entries; values can stand above or below the compound they belong to.
Legend:
[1] = test system: Escherichia coli; assay: microbe, parasite or virus in culture
Description: Antimicrobial activity against Escherichia coli expressing beta-lactamase PER-4 by CLSI broth microdilution method

[2] = test system: Escherichia coli; assay: microbe, parasite or virus in culture; remark: listed apart in the source
Description: Antimicrobial activity against Escherichia coli expressing beta-lactamase KPC-4 by CLSI broth microdilution method

[3] = test system: Escherichia coli; assay: microbe, parasite or virus in culture; remark: listed apart in the source
Description: Antimicrobial activity against Escherichia coli expressing beta-lactamase Oxa-23 by CLSI broth microdilution method

[4] = test system: Escherichia coli; assay: microbe, parasite or virus in culture; remark: listed apart in the source
Description: Antimicrobial activity against Escherichia coli expressing beta-lactamase SPM-1 by CLSI broth microdilution method

[5] = test system: Escherichia coli; assay: microbe, parasite or virus in culture; remark: listed apart in the source
Description: Antimicrobial activity against Escherichia coli expressing beta-lactamase GES-1 by CLSI broth microdilution method

[6] = test system: Escherichia coli; assay: Antimicrobial activity against Escherichia coli expressing beta-lactamase TEM-1 by CLSI broth microdilution method; type: functional
[7] = test system: Escherichia coli; assay: microbe, parasite or virus in culture; remark: listed apart in the source
Description: Antimicrobial activity against Escherichia coli expressing beta-lactamase P99 by CLSI broth microdilution method

[8] = test system: Escherichia coli; assay: Antimicrobial activity against Escherichia coli expressing beta-lactamase VEB-1 by CLSI broth microdilution method; type: functional
[9] = test system: Escherichia coli; assay: microbe, parasite or virus in culture; remark: listed apart in the source
Description: Antimicrobial activity against Escherichia coli expressing beta-lactamase NMC-A by CLSI broth microdilution method

[10] = test system: Escherichia coli; assay: microbe, parasite or virus in culture; remark: listed apart in the source
Description: Antimicrobial activity against Escherichia coli expressing beta-lactamase TEM-16 by CLSI broth microdilution method

[11] = test system: Escherichia coli; assay: microbe, parasite or virus in culture; remark: listed apart in the source
Description: Antimicrobial activity against Escherichia coli expressing beta-lactamase AmpC by CLSI broth microdilution method

[12] = test system: Escherichia coli; assay: microbe, parasite or virus in culture; remark: listed apart in the source
Description: Antimicrobial activity against Escherichia coli expressing beta-lactamase Oxa-10 by CLSI broth microdilution method

[13] = test system: Escherichia coli; assay: microbe, parasite or virus in culture; remark: listed apart in the source
Description: Antimicrobial activity against Escherichia coli expressing beta-lactamase GIM-1 by CLSI broth microdilution method

[14] = test system: Escherichia coli; assay: microbe, parasite or virus in culture; remark: listed apart in the source
Description: Antimicrobial activity against Escherichia coli expressing beta-lactamase TEM-121 by CLSI broth microdilution method

[15] = test system: Escherichia coli; assay: microbe, parasite or virus in culture; remark: listed apart in the source
Description: Antimicrobial activity against Escherichia coli expressing beta-lactamase CTXM-3 by CLSI broth microdilution method

[16] = test system: Escherichia coli; assay: microbe, parasite or virus in culture; remark: listed apart in the source
Description: Antimicrobial activity against Escherichia coli expressing beta-lactamase KPC-8 by CLSI broth microdilution method

[17] = test system: Escherichia coli; assay: microbe, parasite or virus in culture; remark: listed apart in the source
Description: Antimicrobial activity against Escherichia coli expressing beta-lactamase KPC-3 by CLSI broth microdilution method

[18] = test system: Escherichia coli; assay: microbe, parasite or virus in culture; remark: listed apart in the source
Description: Antimicrobial activity against Escherichia coli expressing beta-lactamase VIM-1 by CLSI broth microdilution method

[19] = test system: Escherichia coli; assay: microbe, parasite or virus in culture; remark: listed apart in the source
Description: Antimicrobial activity against Escherichia coli expressing beta-lactamase Oxa-160 by CLSI broth microdilution method

[20] = test system: Escherichia coli; assay: microbe, parasite or virus in culture; remark: listed apart in the source
Description: Antimicrobial activity against Escherichia coli expressing beta-lactamase Oxa-18 by CLSI broth microdilution method

[21] = test system: Escherichia coli; assay: microbe, parasite or virus in culture; remark: listed apart in the source
Description: Antimicrobial activity against Escherichia coli expressing beta-lactamase Oxa-51 by CLSI broth microdilution method

[22] = test system: Escherichia coli; assay: Antimicrobial activity against Escherichia coli expressing beta-lactamase NDM-5 by CLSI broth microdilution method; type: functional
[23] = test system: Escherichia coli; assay: microbe, parasite or virus in culture; remark: listed apart in the source
Description: Antimicrobial activity against Escherichia coli expressing beta-lactamase CTXM-15 by CLSI broth microdilution method

[24] = test system: Escherichia coli; assay: microbe, parasite or virus in culture; remark: listed apart in the source
Description: Antimicrobial activity against Escherichia coli expressing beta-lactamase IMI-1 by CLSI broth microdilution method

[25] = test system: Escherichia coli; assay: microbe, parasite or virus in culture; remark: listed apart in the source
Description: Antimicrobial activity against Escherichia coli expressing beta-lactamase Oxa-40 by CLSI broth microdilution method

[26] = test system: Escherichia coli; assay: microbe, parasite or virus in culture; remark: listed apart in the source
Description: Antimicrobial activity against Escherichia coli expressing beta-lactamase IMP-1 by CLSI broth microdilution method

[27] = Chemical stability in pH 7.4 potassium phosphate buffer assessed as half life for compound hydrolysis at 37 degC by UPLC and mass spectrometry; type: physicochemical
[28] = test system: Escherichia coli; assay: microbe, parasite or virus in culture; remark: listed apart in the source
Description: Antimicrobial activity against Escherichia coli expressing beta-lactamase VEB-4 by CLSI broth microdilution method

[29] = test system: Escherichia coli; assay: microbe, parasite or virus in culture; remark: listed apart in the source
Description: Antimicrobial activity against Escherichia coli expressing beta-lactamase Oxa-48 by CLSI broth microdilution method

[30] = test system: Escherichia coli; assay: microbe, parasite or virus in culture; remark: listed apart in the source
Description: Antimicrobial activity against Escherichia coli expressing beta-lactamase VEB-7 by CLSI broth microdilution method

[31] = test system: Escherichia coli; assay: microbe, parasite or virus in culture; remark: listed apart in the source
Description: Antimicrobial activity against Escherichia coli expressing beta-lactamase CMY-2 by CLSI broth microdilution method

[32] = test system: Escherichia coli; assay: microbe, parasite or virus in culture; remark: listed apart in the source
Description: Antimicrobial activity against Escherichia coli expressing beta-lactamase TEM-10 by CLSI broth microdilution method

[33] = test system: Escherichia coli; assay: microbe, parasite or virus in culture; remark: listed apart in the source
Description: Antimicrobial activity against Escherichia coli expressing beta-lactamase DHA by CLSI broth microdilution method

[34] = test system: Enterobacteriaceae; assay: Antimicrobial activity against ESBL, KPC and MBL producing Enterobacteriaceae by CLSI broth microdilution method; type: functional
[35] = test system: Escherichia coli; assay: microbe, parasite or virus in culture; remark: listed apart in the source
Description: Antimicrobial activity against Escherichia coli expressing beta-lactamase SHV-12 by CLSI broth microdilution method

[36] = test system: Escherichia coli; assay: microbe, parasite or virus in culture; remark: listed apart in the source
Description: Antimicrobial activity against Escherichia coli expressing beta-lactamase MIR-1 by CLSI broth microdilution method

[37] = test system: Escherichia coli; assay: microbe, parasite or virus in culture; remark: listed apart in the source
Description: Antimicrobial activity against Escherichia coli expressing beta-lactamase SME-1 by CLSI broth microdilution method

[38] = test system: Escherichia coli; assay: microbe, parasite or virus in culture; remark: listed apart in the source
Description: Antimicrobial activity against Escherichia coli expressing beta-lactamase Oxa-181 by CLSI broth microdilution method

[39] = test system: Escherichia coli; assay: microbe, parasite or virus in culture; remark: listed apart in the source
Description: Antimicrobial activity against Escherichia coli expressing beta-lactamase PER-1 by CLSI broth microdilution method

[40] = test system: Escherichia coli; assay: microbe, parasite or virus in culture; remark: listed apart in the source
Description: Antimicrobial activity against Escherichia coli expressing beta-lactamase Oxa-146 by CLSI broth microdilution method

[41] = test system: Escherichia coli; assay: microbe, parasite or virus in culture; remark: listed apart in the source
Description: Antimicrobial activity against wild type Escherichia coli by CLSI broth microdilution method

[42] = test system: Pseudomonas aeruginosa; assay: Antimicrobial activity against Pseudomonas aeruginosa ATCC 27853 by CLSI broth microdilution method; type: functional
[43] = test system: Pseudomonas aeruginosa; assay: Antimicrobial activity against Pseudomonas aeruginosa expressing delta-mexB/delta-mexXY/delta-mexCD and delta-ampC mutant by CLSI broth microdilution method; type: functional
[44] = test system: Pseudomonas aeruginosa; assay: Antimicrobial activity against Pseudomonas aeruginosa expressing nalB/delta-mexXY/delta-mexCDoprJ/delta-ampC by CLSI broth microdilution method; type: functional
[45] = test system: Pseudomonas aeruginosa; assay: Antimicrobial activity against Pseudomonas aeruginosa expressing delta-mexB/mexXY/delta-ampDh2/ delta-ampD by CLSI broth microdilution method; type: functional

MIC [1]: 8 µg/mL (≈ 14 µM)
MIC [2]: 2 µg/mL (≈ 3.5 µM)
MIC [3]: 0.25 µg/mL (≈ 0.437 µM)
MIC [4]: 0.125 µg/mL (≈ 0.219 µM)
MIC [5]: 0.06 µg/mL (≈ 0.105 µM)
MIC [6]: 0.125 µg/mL (≈ 0.219 µM)
MIC [7]: 0.25 µg/mL (≈ 0.437 µM)
MIC [8]: 16 µg/mL (≈ 28 µM)
MIC [9]: 0.125 µg/mL (≈ 0.219 µM)
MIC [10]: 0.25 µg/mL (≈ 0.437 µM)
MIC [11]: 0.125 µg/mL (≈ 0.219 µM)
MIC [12]: 0.25 µg/mL (≈ 0.437 µM)
MIC [13]: 0.03 µg/mL (≈ 0.0525 µM)
MIC [14]: 1 µg/mL (≈ 1.75 µM)
MIC [15]: 0.25 µg/mL (≈ 0.437 µM)
MIC [16]: 1 µg/mL (≈ 1.75 µM)
MIC [17]: 0.125 µg/mL (≈ 0.219 µM)
MIC [18]: 0.125 µg/mL (≈ 0.219 µM)
MIC [19]: 0.25 µg/mL (≈ 0.437 µM)
MIC [20]: 1 µg/mL (≈ 1.75 µM)
MIC [21]: 0.25 µg/mL (≈ 0.437 µM)
MIC [22]: 0.25 µg/mL (≈ 0.437 µM)
MIC [23]: 0.125 µg/mL (≈ 0.219 µM)
MIC [24]: 0.06 µg/mL (≈ 0.105 µM)
MIC [25]: 0.125 µg/mL (≈ 0.219 µM)
MIC [26]: 0.125 µg/mL (≈ 0.219 µM)
half-life [27]: 3.71 days
MIC [28]: 8 µg/mL (≈ 14 µM)
MIC [29]: 0.125 µg/mL (≈ 0.219 µM)
MIC [30]: 32 µg/mL (≈ 56 µM)
MIC [31]: 0.25 µg/mL (≈ 0.437 µM)
MIC [32]: 0.5 µg/mL (≈ 0.875 µM)
MIC [33]: 4 µg/mL (≈ 7 µM)
MIC90 [34]: 2 µg/mL (≈ 3.5 µM)
MIC [35]: 0.5 µg/mL (≈ 0.875 µM)
MIC [36]: 0.5 µg/mL (≈ 0.875 µM)
MIC [37]: 0.06 µg/mL (≈ 0.105 µM)
MIC [38]: 0.25 µg/mL (≈ 0.437 µM)
MIC [39]: 32 µg/mL (≈ 56 µM)
MIC [40]: 1 µg/mL (≈ 1.75 µM)
MIC [41]: 0.125 µg/mL (≈ 0.219 µM)
Structure (SMILES): N=C(N)NCc1cn(C[C@@H]2[C@H](NC(=O)/C(=N\OC3(C(=O)O)CC3)c3csc(N)n3)C(=O)N2S(=O)(=O)O)nn1 (stereo in doubt)

Structure (SMILES): N=C(N)NCc1cnn(C[C@@H]2[C@H](NC(=O)/C(=N\OC3(C(=O)O)CC3)c3csc(N)n3)C(=O)N2S(=O)(=O)O)n1 (stereo in doubt)
MIC [42]: 2 µg/mL (≈ 3.5 µM)
MIC [1]: 4 µg/mL (≈ 7 µM)
MIC [43]: 0.25 µg/mL (≈ 0.437 µM)
MIC [2]: 4 µg/mL (≈ 7 µM)
MIC [3]: 0.25 µg/mL (≈ 0.437 µM)
MIC [4]: 0.06 µg/mL (≈ 0.105 µM)
MIC [5]: 0.06 µg/mL (≈ 0.105 µM)
MIC [6]: 0.125 µg/mL (≈ 0.219 µM)
MIC [7]: 0.25 µg/mL (≈ 0.437 µM)
MIC [44]: 16 µg/mL (≈ 28 µM)
MIC [8]: 16 µg/mL (≈ 28 µM)
MIC [9]: 0.125 µg/mL (≈ 0.219 µM)
MIC [10]: 0.5 µg/mL (≈ 0.875 µM)
MIC [11]: 0.5 µg/mL (≈ 0.875 µM)
MIC [12]: 0.25 µg/mL (≈ 0.437 µM)
MIC [13]: 0.125 µg/mL (≈ 0.219 µM)
MIC [14]: 0.5 µg/mL (≈ 0.875 µM)
MIC [15]: 0.25 µg/mL (≈ 0.437 µM)
MIC [16]: 1 µg/mL (≈ 1.75 µM)
MIC [17]: 0.125 µg/mL (≈ 0.219 µM)
MIC [18]: 0.06 µg/mL (≈ 0.105 µM)
MIC [19]: 0.125 µg/mL (≈ 0.219 µM)
MIC [20]: 0.5 µg/mL (≈ 0.875 µM)
MIC [21]: 0.125 µg/mL (≈ 0.219 µM)
MIC [22]: 0.25 µg/mL (≈ 0.437 µM)
MIC [23]: 0.125 µg/mL (≈ 0.219 µM)
MIC [24]: 0.06 µg/mL (≈ 0.105 µM)
MIC [25]: 0.125 µg/mL (≈ 0.219 µM)
MIC [26]: 0.125 µg/mL (≈ 0.219 µM)
half-life [27]: 20.2 days
MIC [28]: 16 µg/mL (≈ 28 µM)
MIC [29]: 0.06 µg/mL (≈ 0.105 µM)
MIC [30]: 32 µg/mL (≈ 56 µM)
MIC [31]: 0.5 µg/mL (≈ 0.875 µM)
MIC [45]: 32 µg/mL (≈ 56 µM)
MIC [32]: 1 µg/mL (≈ 1.75 µM)
MIC [33]: 8 µg/mL (≈ 14 µM)
MIC90 [34]: 4 µg/mL (≈ 7 µM)
MIC [35]: 0.25 µg/mL (≈ 0.437 µM)
MIC [36]: 0.5 µg/mL (≈ 0.875 µM)
MIC [37]: 0.06 µg/mL (≈ 0.105 µM)
MIC [38]: 0.125 µg/mL (≈ 0.219 µM)
MIC [39]: 64 µg/mL (≈ 112 µM)
MIC [40]: 4 µg/mL (≈ 7 µM)
MIC [41]: 0.06 µg/mL (≈ 0.105 µM)

Reference: ChEMBL document CHEMBL4184210, “Optimization of novel monobactams with activity against carbapenem-resistant Enterobacteriaceae - Identification of LYS228” (Bioorg Med Chem Lett, 2018)
